Assays:
[1] = tested on: Brain-Specific Receptors of Rats; assay: Inhibition of the binding of 3H-benzodiazepine to brain-specific receptors of rats; design: species or system rat (Wistar); conditions: 3H-diazepam 1.5 nM or 3H-flunitrazepam 1.0 nM; rat cortex P2 fraction, pH 7.4, 30 minutes in ice; test concentration not given
[2] = tested on: Clonic Seizures Caused by Pentylenetetrazole in Rats; assay: Protection against clonic seizures caused by pentylenetetrazole in rats; format: in vivo; conditions: Rattus norvegicus, oral or i.p., pentylenetetrazole 23 mg/kg i.v. at 30 or 60 minutes, read-out: % of Rats Protected
Protocol: The antianxiety and anticonvulsant properties of the novel compounds of the present invention were established in a test which indicates both anxiolytic and antiepileptic activity by the measure of protection from convulsions resulting from the administration of pentylenetetrazole. Single or graded dose levels of the test compounds were administered orally or intraperitoneally in a 2% starch vehicle, containing 0.5% v/v polyethylene glycol and one drop of Polysorbate 80 to groups of at least 4 rats. At 30 or 60 minutes, the rats were treated intravenously with pentylenetetrazole at a dose of 23 mg/kg of body wieght. This dose is estimated to cause clonic seizures in 99% of unprotected rats. It has been reported [R. T. Hill and D. H. Tedeschi, "Animal Testing and Screening Procedures in Evaluating Psychotropic Drugs" in An Introduction to Psychopharmacology, Eds. R. R. Rech and K. E. Moore, Raven Press, New York, pp 237-288 (1971,] that there is a high degree of correlation between antagonism of pentylenetetrazole seizures in rats and antianxiety and anticonvulsant effects in higher warm-blooded animals. The results of this test on representative compounds of this invention are shown in Table I.

[3] = tested on: Nonconditioned Passive Avoidance in Rats; assay: Nonconditioned passive avoidance test in rats (conflict procedure); format: in vivo, rat (Wistar); design: key: Active: considered active if the number of shocks received by the test group is significantly higher than the control group by the Mann-Witney U test; conditions: oral or i.p., 30 or 60 minutes
Protocol: Another test which has been used to assess anti-anxiety effects is a non-conditioned passive avoidance procedure described by J. R. Vogel, B. Beer and D. E. Clody, "A Simple and Reliable Conflict Procedure for Testing Anti-anxiety Agents", Psychopharmacologia, 21, 1-7 (1971). A conflict situation is induced in rats by a modification of this method.
Groups of 6 naive, Wistar strain rats, weighing 200-240 g each were deprived of water for 48 hours and food for 24 hours. The test compounds were administered in single or graded, oral or intraperitoneal doses, suspended in a 2% starch vehicle containing 0.5% v/v polyethylene glycol and one drop of polysorbate 80. Control animals received the vehicle alone. At 30 or 60 minutes each rat was placed in an individual plexiglass chamber. Water was available ad libitum from a tap located in the rear of the chamber. A 0.7 milliampere DC shocking current was established between the stainless steel grid floor and the tap. After 20 licks of non-shocked drinking, a shock was delivered for 2 seconds and then further shocks were delivered on a ratio of one shock for 2 seconds for every 20 licks. This was continued for a total of 3 minutes. The number of shocks taken by each rat during the 3 minute interval was recorded and compared to a control group. […]

## CC(=O)N(C)c1cccc(-c2ccc3nnc(N)n3n2)c1 [N-Methyl-N-[3-(3-amino-1,2,4-triazolo[4,3-b]pyridazin-6-yl)phenyl]acetamide]
[1]
  % Inhibition: 58%

## CCN(C(C)=O)c1cccc(-c2ccc3nncn3n2)c1 [N-Ethyl-N-[3-(1,2,4-triazolo[4,3-b]pyridazin-6-yl)phenyl]acetamide]
[2]
  responders at 25 mg/kg: 100%
[3]; dose 12.5 mg/kg
  Results (nonconditioned passive avoidance): Active
[1]
  % Inhibition: 78%

## CCN(C(=O)OC)c1cccc(-c2ccc3nnc(C)n3n2)c1 [Ethyl[3-(3-methyl-1,2,4-triazolo[4,3-b]pyridazin-6-yl)phenyl]carbamic acid, methyl ester]
[2]
  responders at 3.1 mg/kg: 75%
[3]; dose 1.5 mg/kg
  Results (nonconditioned passive avoidance): Active
[1]
  % Inhibition: 60%

## COC(=O)N(C)c1cccc(-c2ccc3nncn3n2)c1 [Methyl-[3-(1,2,4-triazolo[4,3-b]pyridazin 6-yl)phenyl]carbamic acid, methyl ester]
[2]
  responders at 25 mg/kg: 25%
[1]
  % Inhibition: 62%

## C#CCN(C(C)=O)c1cccc(-c2ccc3nnc(C)n3n2)c1 [N-[3-(3-Methyl-1,2,4-triazolo[4,3b]pyridazin-6-yl)phenyl]-N-2-propynylacetamide]
[2]
  responders at 3.1 mg/kg: 100%
[3]; dose 1.5 mg/kg
  Results (nonconditioned passive avoidance): Active
[1]
  % Inhibition: 90%

## Cc1nnc2ccc(-c3cccc(N(C)C(=O)N(C)C)c3)nn12 [N,N,N'-Trimethyl-N'-[3-(3-methyl-1,2,4-triazolo[4,3-b]pyridazin-6-yl)phenyl]urea]
[2]
  responders at 25 mg/kg: 50%
[3]; dose 25 mg/kg
  Results (nonconditioned passive avoidance): Active

## CCC(=O)N(C)c1cccc(-c2ccc3nnc(C)n3n2)c1 [N-Methyl-N-[3-(3-methyl-1,2,4-triazolo[4,3-b]pyridazin-6-yl)phenyl]propanamide]
[2]
  responders at 12.5 mg/kg: 25%
[3]; dose 3.1 mg/kg
  Results (nonconditioned passive avoidance): Active
[1]
  % Inhibition: 89%

## CCC(=O)N(CC)c1cccc(-c2ccc3nnc(C)n3n2)c1 [N-Ethyl-N-[3-(3-methyl-1,2,4-triazolo[4,3-b]pyridazin-6-yl)phenyl]propanamide]
[2]
  responders at 3.1 mg/kg: 75%
[3]; dose 3.1 mg/kg
  Results (nonconditioned passive avoidance): Active
[1]
  % Inhibition: 95%

## C#CCN(C(C)=O)c1cccc(-c2ccc3nncn3n2)c1 [N-2-Propynyl-N-[3-(1,2,4-triazolo[4,3-b]pyridazin-6-yl)phenyl]acetamide]
[1]
  % Inhibition: 49%

## CCN(C(C)=O)c1cccc(-c2ccc3nnc(C)n3n2)c1 [N-Ethyl-N-[3-(3-methyl-1,2,4-triazolo[4,3-b]pyridazin-6-yl)phenyl]acetamide]
[2]
  responders at 12.5 mg/kg: 100%
[3]; dose 0.8 mg/kg
  Results (nonconditioned passive avoidance): Active
[1]
  % Inhibition: 90%

## CCN(C(C)=O)c1cccc(-c2ccc3nnc(N)n3n2)c1 [N-Ethyl-N-[3-(3-amino-1,2,4-triazolo[4,3-b]pyridazin-6-yl)phenyl]acetamide]
[1]
  % Inhibition: 90%

## CCCN(C(C)=O)c1cccc(-c2ccc3nnc(C)n3n2)c1 [N-[3-(3-Methyl-1,2,4-triazolo[4,3-b]pyridazin-6-yl)phenyl]-N-propylacetamide]
[1]
  % Inhibition: 93%

## COC(=O)Nc1cccc(-c2ccc3nnc(C)n3n2)c1 [[3-(3-Methyl-1,2,4-triazolo[4,3-b]pyridazin-6-yl)phenyl]carbamic acid, methyl ester]
[3]; dose 25 mg/kg
  Results (nonconditioned passive avoidance): Active
[1]
  % Inhibition: 18%

## CCC(=O)N(C)c1cccc(-c2ccc3nncn3n2)c1 [N-Methyl-N-[3-(1,2,4-triazolo[4,3-b]pyridazin-6-yl)phenyl]propanamide]
[2]
  responders at 25 mg/kg: 100%
[3]; dose 25 mg/kg
  Results (nonconditioned passive avoidance): Active
[1]
  % Inhibition: 56%

## COC(=O)N(C)c1cccc(-c2ccc3nnc(C)n3n2)c1 [Methyl[3-(3-methyl-1,2,4-triazolo[4,3-b]pyridazin-6-yl)phenyl]carbamic acid, methyl ester]
[2]
  responders at 25 mg/kg: 100%
[3]; dose 3.1 mg/kg
  Results (nonconditioned passive avoidance): Active
[1]
  % Inhibition: 62%

## CCN(C(=O)OC)c1cccc(-c2ccc3nncn3n2)c1 [Ethyl[3-(1,2,4-triazolo[4,3-b]pyridazin-6-yl)phenyl]carbamic acid, methyl ester]
[2]
  responders at 25 mg/kg: 100%
[3]; dose 25 mg/kg
  Results (nonconditioned passive avoidance): Active
[1]
  % Inhibition: 78%

## COC(=O)Nc1cccc(-c2ccc3nncn3n2)c1 [[3-(1,2,4-Triazolo[4,3-b]pyridazin-6-yl)phenyl]carbamic acid, methyl ester]
[1]
  % Inhibition: 18%

## Cc1nnc2ccc(-c3cccc(NC(=O)N(C)C)c3)nn12 [N,N-Dimethyl-N'-[3-(3-methyl-1,2,4-triazolo[4,3-b]pyridazin-6-yl)phenyl]urea]
[1]
  % Inhibition: 10%

## C=CCN(C(C)=O)c1cccc(-c2ccc3nnc(C)n3n2)c1 [N-[3-(3-Methyl-1,2,4-triazolo[4,3-b]pyridazin-6-yl)phenyl]-N-2-propenylacetamide]
[2]; dose 6.25 mg/kg
  responders at 6.25 mg/kg: 100%
[3]; dose 25 mg/kg
  Results (nonconditioned passive avoidance): Active
[1]
  % Inhibition: 96%

## CC(=O)N(C)c1cccc(-c2ccc3nncn3n2)c1 [N-Methyl-N-[3-(1,2,4-triazolo[4,3-b]pyridazin-6-yl)phenyl]acetamide]
[2]
  responders at 25 mg/kg: 50%
[3]; dose 12.5 mg/kg
  Results (nonconditioned passive avoidance): Active
[1]
  % Inhibition: 45%

## CCC(=O)N(CC)c1cccc(-c2ccc3nncn3n2)c1 [N-Ethyl-N-[3-(1,2,4-triazolo[4,3-b]pyridazin-6-yl)phenyl]propanamide]
[2]
  responders at 3.1 mg/kg: 50%
[3]; dose 3.1 mg/kg
  Results (nonconditioned passive avoidance): Active
[1]
  % Inhibition: 84%

## CC(=O)N(C)c1cccc(-c2ccc3nnc(C)n3n2)c1 [N-Methyl-N-[3-(3-methyl-1,2,4-triazolo[4,3-b]pyridazin-6-yl)phenyl]acetamid]
[2]; dose 6.0 mg/kg
  responders at 6 mg/kg: 100%
[3]; dose 3.1 mg/kg
  Results (nonconditioned passive avoidance): Active
[1]
  % Inhibition: 89%

## C=CCN(C(C)=O)c1cccc(-c2ccc3nncn3n2)c1 [N-2-Propenyl-N-[3-(1,2,4-triazolo[4,3-b]pyridazin-6-yl)phenyl]acetamide]
[1]
  % Inhibition: 68%

## CCN(C(=O)N(C)C)c1cccc(-c2ccc3nnc(C)n3n2)c1 [N-Ethyl-N',N'-dimethyl-N-[(3-methyl-1,2,4-triazolo[4,3-b]pyridazin-6-yl)phenyl]urea]
[2]
  responders at 12.5 mg/kg: 75%
[3]; dose 3.1 mg/kg
  Results (nonconditioned passive avoidance): Active

## CC(=O)N(CC1CC1)c1cccc(-c2ccc3nnc(C)n3n2)c1 [N-(Cyclopropylmethyl)-N-[3-(3-methyl-1,2,4-triazolo[4,3-b]pyridazin-6-yl)phenyl]acetamide]
[2]
  responders at 12.5 mg/kg: 75%
[3]; dose 6.2 mg/kg
  Results (nonconditioned passive avoidance): Active
[1]
  % Inhibition: 93%

## CCC(=O)Nc1cccc(-c2ccc3nnc(C)n3n2)c1 [N-[3-(3-Methyl-1,2,4-triazolo[4,3-b]pyridazin-6-yl)phenyl]propanamide]
[1]
  % Inhibition: 56%
